Test results reported in EP4685149A1, “NOVEL COMPOUND AS ENDOTHELIAL TO MESENCHYMAL TRANSITION (ENDMT) INHIBITOR, AND PHARMACEUTICAL COMPOSITION COMPRISING SAME” (Korea Institute of Radiological & Medical Sciences, priority 2023, dated 2024).
Where two headings read alike, the source gives them in different places.

System: human vascular endothelial cell lines
Assay: Inhibition of radiation-induced endothelial cell transition (EndMT), phalloidin immunofluorescence staining
Assay type: cell-based
Conditions: 10 uM test substance 1 hour before 10 Gy irradiation, 72 hours after irradiation, relative ratio with IR group (10 Gy alone) as 100%; for activity at 10 µM: Homo sapiens, Endothelial cell, light or radiation study
Procedure: Test substances (Examples 1 to 45) were treated with a 10 mM DMSO solution at a ratio of 1 µL per 1 mL of cell culture medium to a final concentration of 10 uM, and the test substances were treated 1 hour before irradiation on human vascular endothelial cell lines (Promocell, Germany), and then, it was irradiated at an intensity of 10 Gy. 72 hours after irradiation, the human vascular endothelial cell lines were fixed with 10% formalin, and the experiment was conducted according to the manufacturer's method using phalloidin (Invitrogen, USA) to confirm the cytoskeleton filaments that increase during fibrosis. Phalloidin is a protein that binds to the actin of cytoskeleton filaments, and phalloidin conjugated with FITC fluorescent substance made the cytoskeleton filaments appear green when observed under a microscope.
After treatment with the test substance, the area, length and density of phalloidin were measured by using a confocal microscope, and the relative ratio was expressed with the irradiated group (IR group) that was irradiated with 10 Gy alone as 100% (Table 1).

Compound	activity at 10 µM (read-out: Palloidin Area) [%]	activity at 10 µM (read-out: Palloidin Intensity) [%]	activity at 10 µM (read-out: Palloidin Length) [%]	Palloidin Length
O[C@@H]1[C@H](O)CS[C@H]1n1cnc2c(N[C@H]3CCCc4ccccc43)nc(Cl)nc21 [Example 40, (2R,3R,4S)-2-(2-chloro-6-(((S)-1,2,3,4-tetrahydronaphthalen-1-yl)amino)-9H-purin-9-yl)tetrahydrothiophene-3,4-diol]	> 80	> 80	> 80	–
NC(=O)c1ccc2c(c1)CC[C@H]2Nc1nc(Cl)nc2c1ncn2[C@@H]1SC[C@@H](O)[C@H]1O [Example 34, (R)-1-((2-chloro-9-((2R,3R,4S)-3,4-dihydroxytetrahydrothiophen-2-yl)-9H-purin-6-yl)amino)-2,3-dihydro-1H-indene-5-carboxamide]	> 80	> 80	–	+ +
O[C@@H]1[C@H](O)CS[C@H]1n1cnc2c(N[C@@H]3CCc4c(Br)cccc43)nc(Cl)nc21 [Example 19, (2R,3R,4S)-2-[2-chloro-6-[[(1R)-4-bromoindan-1-yl]amino]purin-9-yl]tetrahydrothiophene-3,4-diol]	20 to 50	20 to 50	20 to 50	–
COC(=O)c1ccc2c(c1)CC[C@H]2Nc1nc(Cl)nc2c1ncn2[C@@H]1SC[C@@H](O)[C@H]1O [Example 31, Methyl (R)-1-((2-chloro-9-((2R,3R,4S)-3,4-dihydroxytetrahydrothiophen-2-yl)-9H-purin-6-yl)amino)-2,3-dihydro-1H-indene-5-carboxylate]	> 80	> 80	> 80	–
COC(=O)c1cccc2c1CC[C@H]2Nc1nc(Cl)nc2c1ncn2[C@@H]1SC[C@@H](O)[C@H]1O [Example 30, Methyl (R)-1-((2-chloro-9-((2R,3R,4S)-3,4-dihydroxytetrahydrothiophen-2-yl)-9H-purin-6-yl)amino)-2,3-dihydro-1H-indene-4-carboxylate]	> 80	> 80	> 80	–
O[C@@H]1[C@H](O)CS[C@H]1n1cnc2c(N[C@@H]3CCc4cc(C(F)(F)F)ccc43)nc(Cl)nc21 [Example 28, (2R,3R,4S)-2-[2-chloro-6-[[(1R)-5-(trifluoromethyl)indan-1-yl]amino]purin-9-yl]tetrahydrothiophene-3,4-diol]	50 to 80	50 to 80	> 80	–
COc1ccc2c(c1)[C@H](Nc1nc(Cl)nc3c1ncn3[C@@H]1SC[C@@H](O)[C@H]1O)CC2 [Example 13, (2R,3R,4S)-2-[2-chloro-6-[[(1R)-6-methoxyindan-1-yl]amino]purin-9-yl]tetrahydrothiophene-3,4-diol]	50 to 80	50 to 80	50 to 80	–
N#Cc1cccc2c1CC[C@H]2Nc1nc(Cl)nc2c1ncn2[C@@H]1SC[C@@H](O)[C@H]1O [Example 24, (1R)-1-[[2-chloro-9-[(2R,3R,4S)-3,4-dihydroxytetrahydrothiophen-2-yl]purin-6-yl]amino]indane-4-carbonitrile]	50 to 80	50 to 80	50 to 80	–
O[C@@H]1[C@H](O)CS[C@H]1n1cnc2c(N[C@@H]3CCc4ccccc43)nc(I)nc21 [Example 44, (2R,3R,4S)-2-(6-(((R)-2,3-dihydro-1H-inden-1-yl)amino)-2-iodo-9H-purin-9-yl)tetrahydrothiophene-3,4-diol]	20 to 50	20 to 50	20 to 50	–
O[C@@H]1[C@H](O)CS[C@H]1n1cnc2c(N[C@@H]3CCc4c(F)cccc43)nc(Cl)nc21 [Example 15, (2R,3R,4S)-2-[2-chloro-6-[[(1R)-4-fluoroindan-1-yl]amino]purin-9-yl]tetrahydrothiophene-3,4-diol]	< 20	< 20	< 20	–
O[C@@H]1[C@H](O)CS[C@H]1n1cnc2c(N[C@@H]3CCc4ccccc43)ncnc21 [Example 45, (2R,3R,4S)-2-(6-(((R)-2,3-dihydro-1H-inden-1-yl)amino)-9H-purin-9-yl)tetrahydrothiophene-3,4-diol]	> 80	> 80	> 80	–
CC#Cc1nc(N[C@H]2CCc3ccccc32)c2ncn([C@@H]3SC[C@@H](O)[C@H]3O)c2n1 [Example 2, (2R,3R,4S)-2-[6-[[(1S)-indan-1-yl]amino]-2-prop-1-ynyl-purin-9-yl]tetrahydrothiophene-3,4-diol]	> 80	> 80	> 80	–
O[C@@H]1[C@H](O)CS[C@H]1n1cnc2c(N[C@@H]3CCc4c3cccc4C(F)(F)F)nc(Cl)nc21 [Example 23, (2R,3R,4S)-2-[2-chloro-6-[[(1R)-4-(trifluoromethyl)indan-1-yl]amino]purin-9-yl]tetrahydrothiophene-3,4-diol]	> 80	> 80	> 80	–
CCCC#Cc1nc(N[C@H]2CCc3ccccc32)c2ncn([C@@H]3SC[C@@H](O)[C@H]3O)c2n1 [Example 6, (2R,3R,4S)-2-[6-[[(1S)-indan-1-yl]amino]-2-pent-1-ynyl-purin-9-yl]tetrahydrothiophene-3,4-diol]	20 to 50	20 to 50	–	++^+
O[C@@H]1[C@H](O)CS[C@H]1n1cnc2c(N[C@@H]3CCc4c(Cl)cccc43)nc(Cl)nc21 [Example 17, (2R,3R,4S)-2-[2-chloro-6-[[(1R)-4-chloroindan-1-yl]amino]purin-9-yl]tetrahydrothiophene-3,4-diol]	< 20	< 20	< 20	–
O[C@@H]1[C@H](O)CS[C@H]1n1cnc2c(N[C@@H]3CCc4cc(Cl)ccc43)nc(Cl)nc21 [Example 18, (2R,3R,4S)-2-[2-chloro-6-[[(1R)-5-chloroindan-1-yl]amino]purin-9-yl]tetrahydrothiophene-3,4-diol]	< 20	< 20	< 20	–
COc1ccc2c(c1)CC[C@H]2Nc1nc(Cl)nc2c1ncn2[C@@H]1SC[C@@H](O)[C@H]1O [Example 12, (2R,3R,4S)-2-[2-chloro-6-[[(1R)-5-methoxyindan-1-yl]amino]purin-9-yl]tetrahydrothiophene-3,4-diol]	> 80	> 80	> 80	–
O[C@@H]1[C@H](O)CS[C@H]1n1cnc2c(NC3CCc4ccccc43)nc(Cl)nc21 (stereo partly drawn) [Example 8, (2R,3R,4S)-2-[2-chloro-6-(indan-1-ylamino)purin-9-yl]tetrahydrothiophene-3,4-diol]	20 to 50	20 to 50	20 to 50	–
O[C@@H]1[C@H](O)CS[C@H]1n1cnc2c(NC3CCc4ccccc4C3)nc(Cl)nc21 (stereo partly drawn) [Example 35, (2R,3R,4S)-2-(2-chloro-6-((1,2,3,4-tetrahydronaphthalen-2-yl)amino)-9H-purin-9-yl)tetrahydrothiophene-3,4-diol]	> 80	> 80	> 80	–
O[C@@H]1[C@H](O)CS[C@H]1n1cnc2c(N[C@@H]3CCc4ccccc43)nc(Cl)nc21 [Example 9, (2R,3R,4S)-2-[2-chloro-6-[[(1R)-indan-1-yl]amino]purin-9-yl]tetrahydrothiophene-3,4-diol]	50 to 80	50 to 80	50 to 80	–
